Holding throughout (format): in vivo
The subject of experiment [1] is Beet Armyworm (Spodoptera exigua, LAPHEG). The experiment can be described thus: Bioassays on Beet Armyworm (BAW), 128-well diet tray assay. To be noted: Spodoptera exigua. Put shortly:
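One to five second-instar larvae per well on artificial diet surface-treated with 50 μg/cm^2 test molecule (applied in 90:10 acetone-water, dried), eight wells per compound. Trays held vented at 25° C., 14:10 light-dark for five to seven days; percent mortality averaged over the eight wells.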

Experiment [2] relates to Cabbage Looper (Trichoplusia ni, TRIPNI). The experiment can be described thus: Bioassays on Cabbage Looper (CL), 128-well diet tray assay. To be noted: Trichoplusia ni. Put shortly: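 Test molecule was dissolved in 90:10 acetone-water, applied to artificial diet at 50 μg/cm^2 and allowed to dry. Second-instar larvae were then added, one to five per well, and trays held at 25° C for five to seven days before mortality was scored and averaged.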

Experiment [3] concerns Green Peach Aphid (Myzus persicae, MYZUPE). The experiment can be described thus: Bioassays on Green Peach Aphid (GPA), foliar spray on cabbage seedlings. To be noted: 72 h. Put shortly: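 Percent control (Abbott-corrected versus solvent-sprayed plants) comes from live-aphid counts three days after treatment at about 25° C. Test solution at 200 ppm was sprayed to runoff onto both leaf surfaces of cabbage seedlings infested a day earlier with 20-50 aphids; four replicate pots.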

Experiment [4] deals with Yellow Fever Mosquito (Aedes aegypti, AEDSAE). Put shortly: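 Larvae ~1 day old, in liver powder/water; compound from 4000 ppm DMSO stock diluted with water/acetone (90:10); 6 reps; lidded, RT, 3 d; mortality scored per well, rated.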
Setting [5] is: Beet Armyworm, rating class, read-out: BAW.
The mark [6] stands for this setting: Cabbage Looper, rating class, read-out: CL.
[7] abbreviates: Green Peach Aphid, rating class, read-out: GPA.
[8] abbreviates: Yellow Fever Mosquito, rating class.
[9] abbreviates: Table ABC: Biological Results, species BAW, read-out: BAW.
The mark [10] stands for this setting: Table ABC: Biological Results, species CL, read-out: CL.
Where [11] appears, read: Table ABC: Biological Results, species GPA, read-out: GPA.
Setting [12] is: Table ABC: Biological Results, species YFM.

Where two headings read alike, the source gives them in different places.

`O=C1CCC(C(=O)Nc2c(F)ccc(NC(=O)c3cc(NC(=O)[C@H]4[C@H](c5ccc(F)c(C(F)(F)F)c5)C4(Cl)Cl)ccc3Cl)c2F)O1` (stereo partly drawn) [F1625, N-(3-(2-Chloro-5-((1R,3R)-2,2-dichloro-3-(4-fluoro-3-(trifluoromethyl)phenyl)cyclopropane-1-carboxamido)benzamido)-2,6-difluorophenyl)-5-oxotetrahydrofuran-2-carboxamide]: the pest or weed control at 50 µg/cm2 in experiment [1] (setting [5]) and in experiment [2] (setting [6]) was 50 to 100% each time. Also, in experiment [3] (setting [7]), the pest or weed control at 200 µg/mL is 0 to 80%. Also, in experiment [4] (setting [8]), the YFM result is reported as “A (80–100)”.
`COCCC(=O)Nc1c(F)ccc(NC(=O)c2cc(NC(=O)[C@H]3[C@H](c4ccc(F)c(C(F)(F)F)c4)C3(Cl)Cl)ccc2Cl)c1F` [F1489, 2-Chloro-5-((1R,3R)-2,2-dichloro-3-(4-fluoro-3-(trifluoromethyl)phenyl)cyclopropane-1-carboxamido)-N-(2,4-difluoro-3-(3-methoxypropanamido)phenyl)benzamide]: the pest or weed control at 50 µg/cm2 in experiment [1] (setting [5]) and in experiment [2] (setting [6]) was 50 to 100% each time. Further, the pest or weed control at 200 µg/mL in experiment [3] (setting [7]) was 0 to 80%. Moreover, in experiment [4] (setting [8]), the YFM result is listed as “A (80–100)”.
As for `CC(C)(C)OC(=O)Nc1cc(NC(=O)c2cc(NC(=O)[C@H]3[C@H](c4ccc(F)c(C(F)(F)F)c4)C3(Cl)Cl)ccc2Cl)c(F)c(F)c1F` [F1736, tert-Butyl (5-(2-chloro-5-((1R,3R)-2,2-dichloro-3-(4-fluoro-3-(trifluoromethyl)phenyl)cyclopropane-1-carboxamido)benzamido)-2,3,4-trifluorophenyl)carbamate], the pest or weed control at 50 µg/cm2 in experiment [1] (setting [5]) and in experiment [2] (setting [6]) was 50 to 100% throughout. In experiment [3] (setting [7]), the pest or weed control at 200 µg/mL lay in the range of 0 to 80%. For the same molecule, the YFM entry in experiment [4] (setting [8]) is “A (80–100)”.
On to `Nc1c(F)ccc(NC(=O)c2cc(NC(=O)[C@H]3[C@H](c4ccc(Cl)cc4)C3(Cl)Cl)ccc2Cl)c1F` (relative stereo) [F1593, trans-N-(3-Amino-2,4-difluorophenyl)-2-chloro-5-(2,2-dichloro-3-(4-chlorophenyl)cyclopropane-1-carboxamido)benzamide], for which the pest or weed control at 50 µg/cm2 in experiment [1] (setting [5]) and in experiment [2] (setting [6]) was 50 to 100% each time. For the same molecule, the pest or weed control at 200 µg/mL in experiment [3] (setting [7]) is 80 to 100%. Moreover, in experiment [4] (setting [8]), the YFM result is “A (80–100)”.
In the case of `O=C(Nc1cc(NC(=O)C(F)(F)Cl)c(F)cc1F)c1cc(NC(=O)[C@H]2[C@H](c3ccc(Cl)c(Cl)c3)C2(Cl)Cl)ccc1Cl` [F1243, 2-Chloro-N-(5-(2-chloro-2,2-difluoroacetamido)-2,4-difluorophenyl)-5-((1R,3R)-2,2-dichloro-3-(3,4-dichlorophenyl)cyclopropane-1-carboxamido)benzamide], the pest or weed control at 50 µg/cm2 in experiment [1] (setting [9]) and in experiment [2] (setting [10]) was 50 to 100% each time. The pest or weed control at 200 µg/mL in experiment [3] (setting [11]) fell in the range of 0 to 80%. The YFM result in experiment [4] (setting [12]) is “A (80–100)”.
For `O=C(Nc1ccc(F)c(NC(=O)C2CC(F)(F)C2)c1F)c1cc(NC(=O)[C@H]2[C@H](c3ccc(F)c(C(F)(F)F)c3)C2(Cl)Cl)ccc1Cl` [F1644, 2-Chloro-5-((1R,3R)-2,2-dichloro-3-(4-fluoro-3-(trifluoromethyl)phenyl)cyclopropane-1-carboxamido)-N-(3-(3,3-difluorocyclobutane-1-carboxamido)-2,4-difluorophenyl)benzamide], the pest or weed control at 50 µg/cm2 in experiment [1] (setting [5]) and in experiment [2] (setting [6]) was 50 to 100% in each case. In addition, the pest or weed control at 200 µg/mL in experiment [3] (setting [7]) was in the range of 0 to 80%. For the same molecule, the YFM result in experiment [4] (setting [8]) is given as “B (More than 0 – Less than 80)”.
Turning to `O=C(Cc1ccccc1)Nc1c(F)ccc(NC(=O)c2cc(NC(=O)[C@H]3[C@H](c4ccc(Cl)c(Cl)c4)C3(Cl)Cl)ccc2Cl)c1F` [F1673, 2-Chloro-5-((1R,3R)-2,2-dichloro-3-(3,4-dichlorophenyl)cyclopropane-1-carboxamido)-N-(2,4-difluoro-3-(2-phenylacetamido)phenyl)benzamide], the pest or weed control at 50 µg/cm2 in experiment [1] (setting [5]) and in experiment [2] (setting [6]) was 50 to 100% in each case. The pest or weed control at 200 µg/mL in experiment [3] (setting [7]) was 0 to 80%. For the same molecule, the YFM result in experiment [4] (setting [8]) is on record as “B (More than 0 – Less than 80)”.
`O=C(NCCF)c1c(F)ccc(NC(=O)[C@H]2[C@H](c3ccc(F)c(Cl)c3)C2(Cl)Cl)c1F` (relative stereo) [F2027, trans-3-(2,2-Dichloro-3-(3-chloro-4-fluorophenyl)cyclopropane-1-carboxamido)-2,6-difluoro-N-(2-fluoroethyl)benzamide]: the pest or weed control at 50 µg/cm2 in experiment [1] (Beet Armyworm, Table ABC / ABC-DP rating, read-out: BAW rating) lay in the range of 50 to 100%; in experiment [2] (Cabbage Looper, Table ABC / ABC-DP rating, read-out: CL rating), 50 to 100%. The pest or weed control at 200 µg/mL in experiment [3] (Green Peach Aphid, Table ABC / ABC-DP rating, read-out: GPA rating) lay in the range of 80 to 100%. Further, the YFM rating result in experiment [4] (Yellow Fever Mosquito, Table ABC / ABC-DP rating) is “A (80–100)”.
Consider `O=C(Nc1cc(NC(=O)C(F)F)c(F)cc1F)c1cc(NC(=O)[C@H]2[C@H](c3ccc(Cl)c(Cl)c3)C2(Cl)Cl)ccc1Cl` [F1242, 2-Chloro-5-((1R,3R)-2,2-dichloro-3-(3,4-dichlorophenyl)cyclopropane-1-carboxamido)-N-(5-(2,2-difluoroacetamido)-2,4-difluorophenyl)benzamide], for which the pest or weed control at 50 µg/cm2 in experiment [1] (setting [9]) and in experiment [2] (setting [10]) was 50 to 100% each time. Besides, in experiment [3] (setting [11]), the pest or weed control at 200 µg/mL lay in the range of 0 to 80%. In addition, in experiment [4] (setting [12]), the YFM entry was “A (80–100)”.
On to `O=C(CC(F)(F)F)Nc1c(F)ccc(NC(=O)c2cc(NC(=O)[C@H]3[C@H](c4ccc(F)c(Cl)c4)C3(Cl)Cl)ccc2Cl)c1F` [F1701, 2-Chloro-5-((1R,3R)-2,2-dichloro-3-(3-chloro-4-fluorophenyl)cyclopropane-1-carboxamido)-N-(2,4-difluoro-3-(3,3,3-trifluoropropanamido)phenyl)benzamide], for which the pest or weed control at 50 µg/cm2 in experiment [1] (setting [5]) and in experiment [2] (setting [6]) was 50 to 100% each time. For the same molecule, the pest or weed control at 200 µg/mL in experiment [3] (setting [7]) fell in the range of 80 to 100%. Besides, in experiment [4] (setting [8]), the YFM result is on record as “B (More than 0 – Less than 80)”.
Regarding `O=C(Nc1c(F)ccc(NC(=O)C(F)F)c1F)c1cc(NC(=O)[C@H]2[C@H](c3cc(Cl)c(Cl)c(Cl)c3)C2(Cl)Cl)ccc1Cl` [F1238, 2-Chloro-5-((1R,3R)-2,2-dichloro-3-(3,4,5-trichlorophenyl)cyclopropane-1-carboxamido)-N-(3-(2,2-difluoroacetamido)-2,6-difluorophenyl)benzamide], the pest or weed control at 50 µg/cm2 in experiment [1] (setting [9]) and in experiment [2] (setting [10]) was 50 to 100% in each case. Besides, in experiment [3] (setting [11]), the pest or weed control at 200 µg/mL is 0 to 80%. Moreover, the YFM entry in experiment [4] (setting [12]) is “A (80–100)”.
Take `CC(=O)Nc1c(F)cc(F)c(NC(=O)c2cc(NC(=O)[C@H]3[C@H](c4ccc(F)c(C(F)(F)F)c4)C3(Cl)Cl)ccc2Cl)c1F` [F1613, N-(3-Acetamido-2,4,6-trifluorophenyl)-2-chloro-5-((1R,3R)-2,2-dichloro-3-(4-fluoro-3-(trifluoromethyl)phenyl)cyclopropane-1-carboxamido)benzamide]: the pest or weed control at 50 µg/cm2 in experiment [1] (setting [5]) and in experiment [2] (setting [6]) was 50 to 100% throughout. Moreover, the pest or weed control at 200 µg/mL in experiment [3] (setting [7]) was 80 to 100%. In experiment [4] (setting [8]), the YFM result is recorded as “A (80–100)”.
On to `O=C(Nc1ccc(F)c(NC(=O)C(F)(F)C(F)(F)F)c1F)c1cc(NC(=O)[C@H]2[C@H](c3ccc(Cl)c(Cl)c3)C2(Cl)Cl)ccc1Cl` [F1251, 2-Chloro-5-((1R,3R)-2,2-dichloro-3-(3,4-dichlorophenyl)cyclopropane-1-carboxamido)-N-(2,4-difluoro-3-(2,2,3,3,3-pentafluoropropanamido)phenyl)benzamide], for which the pest or weed control at 50 µg/cm2 in experiment [1] (setting [9]) and in experiment [2] (setting [10]) was 50 to 100% each time. Moreover, the pest or weed control at 200 µg/mL in experiment [3] (setting [11]) was 0 to 80%. The YFM entry in experiment [4] (setting [12]) was “A (80–100)”.
For `O=C(Nc1ccccc1)c1c(F)ccc(NC(=O)[C@H]2[C@H](c3ccc(F)c(Cl)c3)C2(Cl)Cl)c1F` (relative stereo) [F1108, trans-3-(2,2-Dichloro-3-(3-chloro-4-fluorophenyl)cyclopropane-1-carboxamido)-2,6-difluoro-N-phenylbenzamide], the pest or weed control at 50 µg/cm2 in experiment [1] (setting [9]) and in experiment [2] (setting [10]) was 50 to 100% each time. In experiment [3] (setting [11]), the pest or weed control at 200 µg/mL was in the range of 80 to 100%. In addition, the YFM result in experiment [4] (setting [12]) is listed as “A (80–100)”.
Turning to `O=C(Nc1ccc(F)cc1F)c1cc(NC(=O)[C@H]2[C@H](c3ccc(S(F)(F)(F)(F)F)cc3)C2(Cl)Cl)ccc1Cl` (relative stereo) [F1089, trans-2-Chloro-5-(2,2-dichloro-3-(4-(pentafluoro-λ^6-sulfanyl)phenyl)cyclopropane-1-carboxamido)-N-(2,4-difluorophenyl)benzamide], the pest or weed control at 50 µg/cm2 in experiment [1] (setting [9]) and in experiment [2] (setting [10]) was 50 to 100% in each case. Besides, the pest or weed control at 200 µg/mL in experiment [3] (setting [11]) was 0 to 80%. Moreover, the YFM entry in experiment [4] (setting [12]) is reported as “A (80–100)”.

The values above are taken from US20250228239A1, “MOLECULES HAVING PESTICIDAL UTILITY, AND INTERMEDIATES, COMPOSITIONS, AND PROCESSES, RELATED THERETO” (priority 2024, published 2025).
